Measured values published in ChEMBL document CHEMBL1127973, “A comparative molecular field analysis derived model of the binding of taxol analogues to microtubules” (Bioorg Med Chem Lett, 1994).

Assays:
Tubulin (Homo sapiens) [1] = molecular target: T1, Tubulin (Homo sapiens) (UniProt P68371+Q9H4B7+P0DPH7+P68366+Q13509+Q71U36+P04350+Q3ZCM7+P07437+P68363+Q9BQE3+Q6PEY2+Q13885+Q9BVA1+Q9BUF5); assay: Binding affinity to microtubules, activity expressed as ID50 of compound/ID50 of paclitaxel; type: protein-complex assay
Tubulin (Homo sapiens) [2] = molecular target: T1, Tubulin (Homo sapiens); assay: Binding affinity to microtubules, activity expressed as log 1/ID50 of compound/ID50 of paclitaxel; type: protein-complex assay

**Q.** `CC(=O)O[C@H]1C(=O)[C@@]2(C)[C@H]([C@H](OC(=O)c3ccccc3)[C@]3(O)C[C@H](OC(=O)[C@H](O)[C@@H](N)c4ccccc4)C(C)=C1C3(C)C)[C@]1(OC(C)=O)CO[C@@H]1C[C@@H]2O` was tested. Which ID50 ratio (Tubulin (Homo sapiens) [1]) did it give?
**A.** The ID50 ratio was 44.

**Q.** What about the Log 1/ratio (Tubulin (Homo sapiens) [2]) of the same compound?
**A.** The Log 1/ratio was -1.64.

**Q.** `CC(=O)O[C@@]12CO[C@@H]1C[C@H](O)[C@@]1(C)C(=O)[C@H](O)C3=C(C)[C@@H](OC(=O)CCc4ccccc4)C[C@@](O)([C@@H](OC(=O)c4ccccc4)[C@H]21)C3(C)C` was tested. Which ID50 ratio (Tubulin (Homo sapiens) [1]) did it give?
**A.** Its ID50 ratio is 17.

**Q.** And the Log 1/ratio (Tubulin (Homo sapiens) [2])?
**A.** The Log 1/ratio was -1.23.

**Q.** Which ID50 ratio (Tubulin (Homo sapiens) [1]) does the source give for `CC(=O)O[C@@]12CO[C@@H]1C[C@H](O)[C@@]1(C)C(=O)[C@H](O)C3=C(C)[C@@H](OC(=O)[C@H](O)[C@H](N)c4ccccc4)C[C@@](O)([C@@H](OC(=O)c4ccccc4)[C@H]21)C3(C)C` here?
**A.** The ID50 ratio was 30.

**Q.** And the Log 1/ratio (Tubulin (Homo sapiens) [2])?
**A.** The Log 1/ratio was -1.48.

**Q.** Which ID50 ratio (Tubulin (Homo sapiens) [1]) does the source give for `CC(=O)O[C@@H](C(=O)O[C@H]1C[C@@]2(O)[C@@H](OC(=O)c3ccccc3)[C@@H]3[C@]4(OC(C)=O)CO[C@@H]4C[C@H](O)[C@@]3(C)C(=O)[C@H](O)C(=C1C)C2(C)C)[C@@H](NC(=O)OC(C)(C)C)c1ccccc1` here?
**A.** The ID50 ratio was 10.

**Q.** What about the Log 1/ratio (Tubulin (Homo sapiens) [2]) of the same compound?
**A.** The Log 1/ratio was -1.48.

**Q.** Which results are given for `CC(=O)O[C@@]12CO[C@@H]1C[C@H](O)[C@@]1(C)C(=O)[C@H](O)C3=C(C)[C@@H](OC(=O)[C@@H](O)[C@@H](NC(=O)c4ccccc4)c4ccccc4)C[C@@](O)([C@@H](OC(=O)c4ccccc4)[C@H]21)C3(C)C`?
**A.** ID50 ratio (Tubulin (Homo sapiens) [1]): 1.3; Log 1/ratio (Tubulin (Homo sapiens) [2]): -0.114

**Q.** For `CC(=O)O[C@H]1C(=O)[C@]2(C)[C@@H](OC(=O)[C@H](N)CCC(=O)O)C[C@H]3OC[C@@]3(OC(C)=O)[C@H]2[C@H](OC(=O)c2ccccc2)[C@]2(O)C[C@H](OC(=O)[C@H](O)[C@@H](NC(=O)c3ccccc3)c3ccccc3)C(C)=C1C2(C)C`, which ID50 ratio (Tubulin (Homo sapiens) [1]) is on record?
**A.** The ID50 ratio was 1.

**Q.** What about the Log 1/ratio (Tubulin (Homo sapiens) [2]) of the same compound?
**A.** Its Log 1/ratio is 0.

**Q.** With `CC(=O)O[C@H]1C(=O)[C@@]2(C)[C@H]([C@H](OC(=O)c3ccccc3)[C@]3(O)C[C@H](OC(=O)[C@H](O)[C@@H](NC(=O)c4ccccc4)c4ccc(F)cc4)C(C)=C1C3(C)C)[C@]1(OC(C)=O)CO[C@@H]1C[C@@H]2O` as the compound, how does the ID50 ratio (Tubulin (Homo sapiens) [1]) read?
**A.** The ID50 ratio was 1.1.

**Q.** What about the Log 1/ratio (Tubulin (Homo sapiens) [2]) of the same compound?
**A.** Its Log 1/ratio is -0.0414.

**Q.** Which ID50 ratio (Tubulin (Homo sapiens) [1]) does the source give for `CC(=O)O[C@@]12CO[C@@H]1C[C@H](O)[C@@]1(C)C(=O)[C@H](O)C3=C(C)[C@@H](OC(=O)[C@@H](O)[C@@H](N)c4ccccc4)C[C@@](O)([C@@H](OC(=O)c4ccccc4)[C@H]21)C3(C)C` here?
**A.** Its ID50 ratio is 30.

**Q.** What about the Log 1/ratio (Tubulin (Homo sapiens) [2]) of the same compound?
**A.** Its Log 1/ratio is -1.48.

**Q.** Which results are given for `CC(=O)O[C@@]12CO[C@@H]1C[C@H](O)[C@@]1(C)C(=O)[C@H](O)C3=C(C)[C@@H](OC(=O)[C@@H](O)[C@H](NC(=O)c4ccccc4)c4ccccc4)C[C@@](O)([C@@H](OC(=O)c4ccccc4)[C@H]21)C3(C)C`?
**A.** ID50 ratio (Tubulin (Homo sapiens) [1]): 4; Log 1/ratio (Tubulin (Homo sapiens) [2]): -0.602

**Q.** For `CC(=O)O[C@H]1C(=O)[C@@]2(C)[C@H]([C@H](OC(=O)c3ccccc3)[C@]3(O)C[C@H](OC(=O)[C@H](O)[C@@H](NC(=O)c4ccccc4)c4ccc(Cl)cc4)C(C)=C1C3(C)C)[C@]1(OC(C)=O)CO[C@@H]1C[C@@H]2O`, which ID50 ratio (Tubulin (Homo sapiens) [1]) is on record?
**A.** Its ID50 ratio is 1.9.

**Q.** What about the Log 1/ratio (Tubulin (Homo sapiens) [2]) of the same compound?
**A.** Its Log 1/ratio is -0.279.

**Q.** Which results are given for `CC(=O)O[C@H]1C(=O)[C@@]2(C)[C@H]([C@H](OC(=O)c3ccccc3)[C@]3(O)C[C@H](OC(=O)[C@H](O)[C@@H](NC(=O)c4ccccc4)c4ccc5ccccc5c4)C(C)=C1C3(C)C)[C@]1(OC(C)=O)CO[C@@H]1C[C@@H]2O`?
**A.** ID50 ratio (Tubulin (Homo sapiens) [1]): 7.1; Log 1/ratio (Tubulin (Homo sapiens) [2]): -0.851

**Q.** Which results are given for `CC(=O)O[C@@]12CO[C@@H]1C[C@H](OC(=O)CN)[C@@]1(C)C(=O)[C@H](OC(=O)CN)C3=C(C)[C@@H](OC(=O)[C@H](O)[C@@H](NC(=O)OC(C)(C)C)c4ccccc4)C[C@@](O)([C@@H](OC(=O)c4ccccc4)[C@H]21)C3(C)C`?
**A.** ID50 ratio (Tubulin (Homo sapiens) [1]): 1.2; Log 1/ratio (Tubulin (Homo sapiens) [2]): -0.0792

**Q.** `CC(=O)O[C@@]12CO[C@@H]1C[C@H](O)[C@@]1(C)C(=O)[C@H](O)C3=C(C)[C@@H](OC(=O)[C@H](O)[C@H](NC(=O)c4ccccc4)c4ccccc4)C[C@@](O)([C@@H](OC(=O)c4ccccc4)[C@H]21)C3(C)C` was tested. Which ID50 ratio (Tubulin (Homo sapiens) [1]) did it give?
**A.** The ID50 ratio was 1.3.

**Q.** And the Log 1/ratio (Tubulin (Homo sapiens) [2])?
**A.** The Log 1/ratio was -0.114.

**Q.** With `CC(=O)O[C@H]1C(=O)[C@@]2(C)[C@H]([C@H](OC(=O)c3ccccc3)[C@]3(O)C[C@H](OC(=O)[C@H](O)[C@@H](NC(=O)c4ccccc4)c4cccc(Cl)c4)C(C)=C1C3(C)C)[C@]1(OC(C)=O)CO[C@@H]1C[C@@H]2O` as the compound, how does the ID50 ratio (Tubulin (Homo sapiens) [1]) read?
**A.** The ID50 ratio was 4.4.

**Q.** And the Log 1/ratio (Tubulin (Homo sapiens) [2])?
**A.** The Log 1/ratio was -0.644.

**Q.** What does the source list for `CC(=O)O[C@@]12CO[C@@H]1C[C@H](O)[C@@]1(C)C(=O)[C@H](O)C3=C(C)[C@@H](OC(=O)/C=C/c4ccccc4)C[C@@](O)([C@@H](OC(=O)c4ccccc4)[C@H]21)C3(C)C`?
**A.** ID50 ratio (Tubulin (Homo sapiens) [1]): 23; Log 1/ratio (Tubulin (Homo sapiens) [2]): -1.37

**Q.** What does the source list for `CC(=O)O[C@@]12CO[C@@H]1C[C@H](O)[C@@]1(C)C(=O)[C@H](O)C3=C(C)[C@@H](OC(=O)[C@@H](O)Cc4ccccc4)C[C@@](O)([C@@H](OC(=O)c4ccccc4)[C@H]21)C3(C)C`?
**A.** ID50 ratio (Tubulin (Homo sapiens) [1]): 3.5; Log 1/ratio (Tubulin (Homo sapiens) [2]): -0.544

**Q.** `CC(=O)O[C@H]1C(=O)[C@@]2(C)[C@H]([C@H](OC(=O)c3ccccc3)[C@]3(O)C[C@H](OC(=O)[C@H](NC(=O)c4ccccc4)[C@@H](O)c4ccccc4)C(C)=C1C3(C)C)[C@]1(OC(C)=O)CO[C@@H]1C[C@@H]2O` was tested. Which ID50 ratio (Tubulin (Homo sapiens) [1]) did it give?
**A.** Its ID50 ratio is 10.

**Q.** And the Log 1/ratio (Tubulin (Homo sapiens) [2])?
**A.** The Log 1/ratio was -1.

**Q.** How did the ID50 ratio (Tubulin (Homo sapiens) [1]) turn out when `CC(=O)O[C@H]1C(=O)[C@@]2(C)[C@H]([C@H](OC(=O)c3ccccc3)[C@]3(O)C[C@H](OC(=O)[C@H](O)[C@@H](NC(=O)c4ccc(Cl)c(Cl)c4)c4ccccc4)C(C)=C1C3(C)C)[C@]1(OC(C)=O)CO[C@@H]1C[C@@H]2O` was run?
**A.** Its ID50 ratio is 2.1.

**Q.** With `CC(=O)O[C@H]1C(=O)[C@@]2(C)[C@H]([C@H](OC(=O)c3ccccc3)[C@]3(O)C[C@H](OC(=O)[C@H](O)[C@@H](NC(=O)c4c(F)c(F)c(N=[N+]=[N-])c(F)c4F)c4ccccc4)C(C)=C1C3(C)C)[C@]1(OC(C)=O)CO[C@@H]1C[C@@H]2O` as the compound, how does the ID50 ratio (Tubulin (Homo sapiens) [1]) read?
**A.** The ID50 ratio was 4.6.

**Q.** With `CC(=O)O[C@H]1C(=O)[C@@]2(C)[C@H]([C@H](OC(=O)c3ccccc3)[C@]3(O)C[C@H](OC(=O)[C@H](O)[C@@H](NC(=O)/C(C)=N/O)c4ccccc4)C(C)=C1C3(C)C)[C@]1(OC(C)=O)CO[C@@H]1C[C@@H]2O` as the compound, how does the ID50 ratio (Tubulin (Homo sapiens) [1]) read?
**A.** The ID50 ratio was 3.5.

**Q.** `CC(=O)O[C@@]12CO[C@@H]1C[C@H](OC(=O)CCCC(=O)O)[C@@]1(C)C(=O)[C@H](OC(=O)CCCC(=O)O)C3=C(C)[C@@H](OC(=O)[C@H](O)[C@@H](NC(=O)OC(C)(C)C)c4ccccc4)C[C@@](O)([C@@H](OC(=O)c4ccccc4)[C@H]21)C3(C)C` was tested. Which ID50 ratio (Tubulin (Homo sapiens) [1]) did it give?
**A.** Its ID50 ratio is 2.

**Q.** Which ID50 ratio (Tubulin (Homo sapiens) [1]) does the source give for `CC(=O)O[C@H]1C(=O)[C@@]2(C)[C@H]([C@H](OC(=O)c3ccccc3)[C@]3(O)C[C@H](OC(=O)[C@H](O)[C@@H](NC(=O)c4ccccc4C)c4ccccc4)C(C)=C1C3(C)C)[C@]1(OC(C)=O)CO[C@@H]1C[C@@H]2O` here?
**A.** The ID50 ratio was 1.9.

**Q.** `CC(=O)O[C@H]1C(=O)[C@@]2(C)[C@H]([C@H](OC(=O)c3ccccc3)[C@]3(O)C[C@H](OC(=O)[C@H](O)[C@@H](NC(=O)c4cccc(N(C)C)c4)c4ccccc4)C(C)=C1C3(C)C)[C@]1(OC(C)=O)CO[C@@H]1C[C@@H]2O` was tested. Which ID50 ratio (Tubulin (Homo sapiens) [1]) did it give?
**A.** The ID50 ratio was 1.4.

**Q.** `CC(=O)O[C@H]1C(=O)[C@@]2(C)[C@H]([C@H](OC(=O)c3ccccc3)[C@]3(O)C[C@H](OC(=O)[C@H](O)[C@@H](NC(=O)c4ccccc4)c4cccnc4)C(C)=C1C3(C)C)[C@]1(OC(C)=O)CO[C@@H]1C[C@@H]2O` was tested. Which ID50 ratio (Tubulin (Homo sapiens) [1]) did it give?
**A.** The ID50 ratio was 0.5.

**Q.** How did the ID50 ratio (Tubulin (Homo sapiens) [1]) turn out when `CC(=O)O[C@@]12CO[C@@H]1C[C@H](O)[C@@]1(C)C(=O)CC3=C(C)[C@@H](OC(=O)[C@H](O)[C@@H](NC(=O)c4ccccc4)c4ccccc4)C[C@@](O)([C@@H](OC(=O)c4ccccc4)[C@H]21)C3(C)C` (stereo in doubt; 17) was run?
**A.** Its ID50 ratio is 143.
